The results in this text go back to PubChem BioAssay AID298 (DTP/NCI, 2004).

The subject of the assay is MX-1 breast xenograft, intrarenal, nude mice, tumor weight. In words: NCI In Vivo Anticancer Drug Screen. Data for tumor model Human Mammary Carcinoma MX-1 Xenograft (intrarenal inoculation) in NU/NU BALB/C (nude) mice. The conditions noted are these: endpoint: mean tumor weight change, higher = larger tumour. The method, boiled down: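 T/C readout: treated-group measurement over vehicle-control measurement, using tumor size or survival in tumor-bearing mice.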

Setting [1] is: dose: 25.0 mg/kg/injection, schedule: Q04DX003 (sc), vehicle: Klucel (hydroxypropylcellulose) (HPC).
Where [2] appears, read: dose: 50.0 mg/kg/injection, schedule: Q04DX003 (sc), vehicle: Klucel (hydroxypropylcellulose) (HPC).
[3] abbreviates: dose: 150.0 mg/kg/injection, schedule: Q04DX003 (sc), vehicle: saline.
[4] abbreviates: dose: 150.0 mg/kg/injection, schedule: Q04DX003 (ip), vehicle: Klucel (hydroxypropylcellulose) (HPC).
Where [5] appears, read: dose: 300.0 mg/kg/injection, schedule: Q04DX003 (ip), vehicle: Klucel (hydroxypropylcellulose) (HPC).
Setting [6] is: dose: 600.0 mg/kg/injection, schedule: Q04DX003 (ip), vehicle: Klucel (hydroxypropylcellulose) (HPC).
Setting [7] is: dose: 300.0 mg/kg/injection, schedule: Q04DX003 (sc), vehicle: saline with Tween-80.
The mark [8] stands for this setting: dose: 600.0 mg/kg/injection, schedule: Q04DX003 (sc), vehicle: saline with Tween-80.
Where [9] appears, read: dose: 1200.0 mg/kg/injection, schedule: Q04DX003 (sc), vehicle: saline with Tween-80.
The mark [10] stands for this setting: dose: 2400.0 mg/kg/injection, schedule: Q04DX003 (sc), vehicle: saline with Tween-80.

Several values for one entry are separate records, joined by “and”; a condition that tells them apart may be missing. Equal entries are not always repeated. Results filed as inconclusive are left out.

As for `COc1cc2c(oc(=O)c3cc(C)cc(OC)c32)c2c(C3OC(C)C(O)C(C)(O)C3O)ccc(O)c12` (centres undefined), the T/C reads like this: (dose: 12.5 mg/kg/injection, schedule: Q04DX003 (ip), vehicle: DMSO) 97 % of control and 106 % of control; (dose: 50.0 mg/kg/injection, schedule: Q04DX003 (ip), vehicle: DMSO) 48 % of control and 63 % of control.

As for `COc1cccc2c1C(=O)c1c(O)c3c(c(O)c1C2=O)CC(O)(/C(C)=N/NC(=O)CCCCC(=O)N/N=C(\C)C1(O)Cc2c(O)c4c(c(O)c2C(OC2CC(N)C(O)C(C)O2)C1)C(=O)c1c(OC)cccc1C4=O)CC3OC1CC(N)C(O)C(C)O1` (centres undefined), the T/C runs as follows: (dose: 12.5 mg/kg/injection, schedule: Q04DX003 (sc), vehicle: water) 41 % of control; (dose: 25.0 mg/kg/injection, schedule: Q04DX003 (sc), vehicle: water) 5 % of control; (dose: 50.0 mg/kg/injection, schedule: Q04DX003 (sc), vehicle: water) -56 % of control.

As to `O=S1(=O)CS(=O)(=O)OCCO1`, the T/C (dose: 12.5 mg/kg/injection, schedule: Q04DX003 (sc), vehicle: Klucel (hydroxypropylcellulose) (HPC)) is 72 % of control; the T/C under setting [1] is 23 % of control; the T/C (dose: 37.5 mg/kg/injection, schedule: Q04DX003 (sc), vehicle: Klucel (hydroxypropylcellulose) (HPC)) is 42 % of control; the T/C under setting [2] is 2 % of control; the T/C (dose: 150.0 mg/kg/injection, schedule: Q04DX003 (sc), vehicle: Klucel (hydroxypropylcellulose) (HPC)) is 16 % of control and 21 % of control; the T/C (dose: 300.0 mg/kg/injection, schedule: Q04DX003 (sc), vehicle: Klucel (hydroxypropylcellulose) (HPC)) was 11 % of control.

Consider `O=P1(NCCCl)OCCCN1CCCl` (centres undefined), for which the T/C under setting [3] is -32 % of control.

Consider `O=C(NC(Cc1ccc(I)cc1)C(=O)O)c1cccc(Br)c1` (centres undefined), for which the T/C runs as follows: under setting [4], 57 % of control; under setting [5], 72 % of control; under setting [6], 76 % of control.

For the compound `OCC(O)C(O)C(O)C(O)CO` (centres undefined), the T/C runs as follows: (dose: 75.0 mg/kg/injection, schedule: Q04DX003 (ip), vehicle: saline) 75 % of control; (dose: 150.0 mg/kg/injection, schedule: Q04DX003 (ip), vehicle: saline) 103 % of control; (dose: 300.0 mg/kg/injection, schedule: Q04DX003 (ip), vehicle: saline) 91 % of control; (dose: 600.0 mg/kg/injection, schedule: Q04DX003 (ip), vehicle: saline) 94 % of control; (dose: 1200.0 mg/kg/injection, schedule: Q04DX003 (ip), vehicle: saline) 70 % of control.

Take `c1ccc2c(NCCCCCCCCNc3c4ccccc4nc4ccccc34)c3ccccc3nc2c1`: the T/C by setting is: (dose: 20.0 mg/kg/injection, schedule: Q01DX010 (sc), vehicle: Klucel (hydroxypropylcellulose) (HPC)) 106 % of control; (dose: 40.0 mg/kg/injection, schedule: Q01DX010 (sc), vehicle: Klucel (hydroxypropylcellulose) (HPC)) 107 % of control; (dose: 80.0 mg/kg/injection, schedule: Q01DX010 (sc), vehicle: Klucel (hydroxypropylcellulose) (HPC)) 100 % of control; (dose: 160.0 mg/kg/injection, schedule: Q01DX010 (sc), vehicle: Klucel (hydroxypropylcellulose) (HPC)) 99 % of control.

In the case of `Oc1c(Cl)cc(Cl)cc1C=NCCSc1ccc(Cl)cc1`, the T/C under setting [4] is 99 % of control and 112 % of control; the T/C under setting [5] is 95 % of control; the T/C under setting [6] was 104 % of control and 107 % of control.

On to `c1ccc(-c2cc3cc4ccccc4cn3c2)cc1`, for which the T/C is, setting by setting: (dose: 150.0 mg/kg/injection, schedule: Q04DX003 (ip), vehicle: saline with Tween-80) 61 % of control; (dose: 300.0 mg/kg/injection, schedule: Q04DX003 (ip), vehicle: saline with Tween-80) 108 % of control; (dose: 600.0 mg/kg/injection, schedule: Q04DX003 (ip), vehicle: saline with Tween-80) 81 % of control; (dose: 1200.0 mg/kg/injection, schedule: Q04DX003 (ip), vehicle: saline with Tween-80) 101 % of control.

As to `C=C1C(O)C2(O)OCC34C(CC5C(C)=CC(=O)C(O)C5(C)C23)OC(=O)C(OC(=O)C/C=C(\C)CCCCC)C14` (centres undefined), the T/C is 69 % of control (dose: 1.5 mg/kg/injection, schedule: Q04DX003 (ip), vehicle: saline + alcohol); 87 % of control (dose: 3.0 mg/kg/injection, schedule: Q04DX003 (ip), vehicle: saline + alcohol); 47 % of control (dose: 6.0 mg/kg/injection, schedule: Q04DX003 (ip), vehicle: saline + alcohol); 43 % of control (dose: 12.0 mg/kg/injection, schedule: Q04DX003 (ip), vehicle: saline + alcohol).

Consider `O=C1CN(CCN2CC(=O)N(CN3CCOCC3)C(=O)C2)CC(=O)N1CN1CCOCC1`, for which the T/C reads like this: (dose: 150.0 mg/kg/injection, schedule: Q04DX003 (ip), vehicle: water) 56 % of control; (dose: 300.0 mg/kg/injection, schedule: Q04DX003 (ip), vehicle: water) 58 % of control.

As to `CCOC(=O)[C@]1(Br)CC[C@@]1(Br)C(=O)OCC`, the T/C is 99 % of control under setting [7], 96 % of control under setting [8] and 94 % of control under setting [9].

`O=S(CCCl)CCCl`: the T/C was 94 % of control under setting [1] and 92 % of control under setting [2].

Turning to `CC1Oc2cc3c(-c4c(O)cc(O)c5c(O)c6c(cc45)OC(C)C(C)C6=O)c(O)cc(O)c3c(O)c2C(=O)C1C` (centres undefined), the T/C by setting is: (dose: 9.0 mg/kg/injection, schedule: Q04DX003 (ip), vehicle: suspension in saline) 21 % of control; (dose: 12.0 mg/kg/injection, schedule: Q04DX003 (ip), vehicle: suspension in saline) 15 % of control.

Consider `CNc1n[n+](-c2ccccc2)no1`, for which the T/C is 88 % of control (dose: 18.25 mg/kg/injection, schedule: Q04DX003 (sc), vehicle: water); 81 % of control (dose: 37.5 mg/kg/injection, schedule: Q04DX003 (sc), vehicle: water); 91 % of control (dose: 75.0 mg/kg/injection, schedule: Q04DX003 (sc), vehicle: water).

For the compound `Cn1c(=S)sc2nc3ccccc3n2c1=S`, the T/C is 165 % of control (dose: 30.0 mg/kg/injection, schedule: Q04DX003 (ip), vehicle: saline with Tween-80) and 42 % of control (dose: 120.0 mg/kg/injection, schedule: Q04DX003 (ip), vehicle: saline with Tween-80).

Take `O=C(O)CC(=O)O.[NH-]CC[NH-].[Pt+2]`: the T/C (dose: 25.0 mg/kg/injection, schedule: Q01DX010 (sc), vehicle: dextrose) is -6 % of control and the T/C (dose: 50.0 mg/kg/injection, schedule: Q01DX010 (sc), vehicle: dextrose) is -85 % of control.

As for `CC(=O)Oc1[nH]c(=O)c2cccc3c2c1CCC3`, the T/C is 107 % of control under setting [7], 93 % of control under setting [8], 118 % of control under setting [9] and 89 % of control under setting [10].

Regarding `COc1ccc([C@@]23Oc4cc(OC)cc(OC)c4[C@]2(O)[C@H](O)[C@H](C(=O)N(C)C)[C@H]3c2ccccc2)cc1`, the T/C is 92 % of control (dose: 2.0 mg/kg/injection, schedule: Q04DX003 (ip), vehicle: Klucel (hydroxypropylcellulose) (HPC)); 79 % of control (dose: 4.0 mg/kg/injection, schedule: Q04DX003 (ip), vehicle: Klucel (hydroxypropylcellulose) (HPC)); 79 % of control (dose: 8.0 mg/kg/injection, schedule: Q04DX003 (ip), vehicle: Klucel (hydroxypropylcellulose) (HPC)); 88 % of control (dose: 16.0 mg/kg/injection, schedule: Q04DX003 (ip), vehicle: Klucel (hydroxypropylcellulose) (HPC)).

Take `OC1OC2COC(c3ccccc3)OC2C(O)C1O` (centres undefined): the T/C is, setting by setting: (dose: 300.0 mg/kg/injection, schedule: Q04DX003 (sc), vehicle: water) 57 % of control; (dose: 600.0 mg/kg/injection, schedule: Q04DX003 (sc), vehicle: water) 91 % of control; (dose: 1200.0 mg/kg/injection, schedule: Q04DX003 (sc), vehicle: water) 91 % of control; (dose: 2400.0 mg/kg/injection, schedule: Q04DX003 (sc), vehicle: water) 105 % of control.

In the case of `Cc1noc2nc(-c3ccccc3)cc(N3CCN(C)CC3)c12`, the T/C (dose: 75.0 mg/kg/injection, schedule: Q04DX003 (ip), vehicle: other) was 83 % of control; the T/C (dose: 150.0 mg/kg/injection, schedule: Q04DX003 (ip), vehicle: other) was 120 % of control; the T/C (dose: 300.0 mg/kg/injection, schedule: Q04DX003 (ip), vehicle: other) is 92 % of control.

As for `NNC(=O)c1ccncc1`, the T/C under setting [3] is 123 % of control.

Consider `CC(=O)ON(C(C)=O)c1ccc(C(N)=O)cc1`, for which the T/C runs as follows: under setting [8], 52 % of control; under setting [10], 98 % of control.
